According to ChEMBL document CHEMBL5154799, “Discovery of a Novel Stilbene Derivative as a Microtubule Targeting Agent Capable of Inducing Cell Ferroptosis” (J Med Chem, 2022):
Calls of active or inactive are those of the source. The calls are words filed in the database; no cut-off is given here.

What was measured:
[1] = Resistance index, ratio of IC50 for antiproliferative activity against human vincristine-resistant HCT-8/VCR cells to IC50 for antiproliferative activity against HCT-8 cells; format: functional
HeLa [2] = assay: Antiproliferative activity against human HeLa cells assessed as cell viability incubated for 48 hrs by MTT assay; format: functional, cell-based
HCT-8 [3] = assay: Antiproliferative activity against human HCT-8 cells assessed as cell viability incubated for 48 hrs by MTT assay; format: functional, cell-based; conditions: HCT-8, 48 h
MCF7 [4] = assay: Antiproliferative activity against human MCF7 cells assessed as cell viability incubated for 48 hrs by MTT assay; format: functional, cell-based; conditions: MCF7, 48 h
HeLa [5] = assay: Antiproliferative activity against human HeLa cells assessed as inhibition of cell proliferation incubated for 2 hrs by CCK-8 assay; format: functional, cell-based; conditions: DDE = dose-dependent effect
HCT-8 [6] = assay: Antiproliferative activity against human HCT-8 cells assessed as inhibition of cell proliferation incubated for 2 hrs by CCK-8 assay; format: functional, cell-based; conditions: DDE = dose-dependent effect
MCF7 [7] = assay: Antiproliferative activity against human MCF7 cells assessed as inhibition of cell proliferation incubated for 2 hrs by CCK-8 assay; format: functional, cell-based; conditions: DDE = dose-dependent effect
LoVo = assay: Antiproliferative activity against human LoVo cells assessed as inhibition of cell proliferation incubated for 2 hrs by CCK-8 assay; format: functional, cell-based; conditions: DDE = dose-dependent effect
PC-3 = assay: Antiproliferative activity against human PC-3 cells assessed as inhibition of cell proliferation incubated for 2 hrs by CCK-8 assay; format: functional, cell-based; conditions: DDE = dose-dependent effect
MGC-803 = assay: Antiproliferative activity against human MGC-803 cells assessed as inhibition of cell proliferation incubated for 2 hrs by CCK-8 assay; format: functional, cell-based; conditions: DDE = dose-dependent effect
[8] = Cytotoxicity against HUVEC cells assessed as reduction in cell viability; format: toxicity, cell-based; conditions: human
[9] = Cytotoxicity against human L02 cells assessed as reduction in cell viability; format: toxicity, cell-based
[10] = Cytotoxicity against HLF cells assessed as reduction in cell viability; format: toxicity, cell-based; conditions: human
[11] = Selectivity ratio of IC50 for cytotoxicity against human MCF-10A cells assessed as reduction in cell viability to IC50 for cytotoxicity against human A549 cells assessed as reduction in cell viability; format: toxicity, cell-based; conditions: MCF-10A cells versus A549 cells
A549 [12] = assay: Antiproliferative activity against human adriamycin-resistant A549/ADR cells assessed as cell viability incubated for 48 hrs by MTT assay; format: functional, cell-based; conditions: A549, 48 h
[13] = Resistance index, ratio of IC50 for antiproliferative activity against human paclitaxel-resistant A2780/TAX cells to IC50 for antiproliferative activity against human A2780 cells; format: functional
Tubulin (Homo sapiens) [14] = target: T1, Tubulin (Homo sapiens) (UniProt P68371+Q9H4B7+P0DPH7+P68366+Q13509+Q71U36+P04350+Q3ZCM7+P07437+P68363+Q9BQE3+Q6PEY2+Q13885+Q9BVA1+Q9BUF5); assay: Inhibition of [3H]colchicine binding to tubulin (unknown origin) at 0.075 uM by competitive binding assay relative to control; format: protein-complex assay
Tubulin (Homo sapiens) [15] = target: T1, Tubulin (Homo sapiens); assay: Inhibition of [3H]colchicine binding to tubulin (unknown origin) at 1.25 uM by competitive binding assay relative to control; format: protein-complex assay
Tubulin (Homo sapiens) [16] = target: T1, Tubulin (Homo sapiens); assay: Inhibition of [3H]colchicine binding to tubulin (unknown origin) at 5 uM by competitive binding assay relative to control; format: protein-complex assay
Tubulin (Homo sapiens) [17] = target: T1, Tubulin (Homo sapiens); assay: Inhibition of [3H]colchicine binding to tubulin (unknown origin) at 10 uM by competitive binding assay relative to control; format: protein-complex assay
A549 [18] = assay: Cell cycle arrest in human A549 cells assessed as increase in accumulation in G2/M phase incubated for 24 to 48 hrs by PI staining based flow cytometry analysis; format: functional; conditions: dose 5-20 nM, time 24-48 hrs, DDE = dose-dependent effect
A549 [19] = assay: Cell cycle arrest in human A549 cells assessed as downregulation of Cdc25C expression at 5 to 20 nM incubated for 24 to 48 hrs by Western blot analysis; format: functional, cell-based; conditions: dose 5-20 nM, time 24-48 hrs
A549 [20] = assay: Induction of ferroptosis in human A549 cells assessed as accumulation of superoxide anions incubated for 24 hrs by DCFH-DA staining based fluorescence microscopy; format: functional, cell-based; conditions: dose 5-10 nM, DDE = dose-dependent effect
A549 [21] = assay: Induction of ferroptosis in human A549 cells assessed as rupture of plasma membrane incubated for 24 hrs by CCK-8 assay; format: functional, cell-based
A549 [22] = assay: Induction of ferroptosis in human A549 cells assessed as cell swelling incubated for 24 hrs by CCK-8 assay; format: functional, cell-based
A549 [23] = assay: Induction of ferroptosis in human A549 cells assessed as induction of lipid […] accumulation at 5 to 20 nM incubated for 24 hrs by C11-BODIPY-581/591 staining based flow cytometry analysis; format: functional, cell-based; conditions: dose 5-20 nM
[24] = Acute oral toxicity in rat assessed as survival at 17.5 to 175 mg/kg measured over 8 hours daily for 14 days; format: organism-based; conditions: in vivo, 336 h, dose 17.5-175 mg/kg, time 14 day
[25] = Acute toxicity in rat assessed as median lethal dose after at 175 to 550 mg/kg for 14 days; format: organism-based; conditions: in vivo, dose 175-550 mg/kg, time 14 day
[26] = Half life in ICR mouse at 10 mg/kg, po single administration measured for 24 hrs post treatment by LC-MS/MS analysis; format: ADME, organism-based; conditions: in vivo
[27] = AUC (0 to t) in ICR mouse at 10 mg/kg, po single administration measured for 24 hrs post treatment by LC-MS/MS analysis; format: ADME, organism-based; conditions: in vivo
[28] = MRT in ICR mouse at 10 mg/kg, po single administration measured for 24 hrs post treatment by LC-MS/MS analysis; format: ADME, organism-based; conditions: in vivo
[29] = Half life in ICR mouse at 1 mg/kg, iv single administration measured for 24 hrs post treatment by LC-MS/MS analysis; format: ADME, organism-based; conditions: in vivo
[30] = AUC (0 to t) in ICR mouse at 1 mg/kg, iv single administration measured for 24 hrs post treatment by LC-MS/MS analysis; format: ADME, organism-based; conditions: in vivo
[31] = AUC (0 to infinity) in ICR mouse at 1 mg/kg, iv single administration measured for 24 hrs post treatment by LC-MS/MS analysis; format: ADME, organism-based; design: time 24 hrs, dose 1 mg/kg, route iv; conditions: in vivo
[32] = MRT in ICR mouse at 1 mg/kg, iv single administration measured for 24 hrs post treatment by LC-MS/MS analysis; format: ADME, organism-based; conditions: in vivo
A549 [33] = assay: In vivo antitumor activity against human A549 cells xenografted in athymic nude BALB/c mouse assessed as tumor growth inhibition at 10 mg/kg measured after 30 days relative to control; format: functional; conditions: A549, 720 h, time 30 day, read-out: TGI
[34] = Toxicity in athymic nude BALB/c mouse assessed as change in body weight at 10 mg/kg, ip measured for 30 days; format: organism-based; conditions: in vivo, 720 h, time 30 day
[35] = Toxicity in athymic nude BALB/c mouse assessed as body weight loss at 10 mg/kg, ip measured for 30 days; format: organism-based; conditions: in vivo, 720 h, time 30 day
[36] = Toxicity in human A549 cells xenografted in athymic nude BALB/c nude mouse assessed as morphological changes in lung at 10 mg/kg, ip measured after 30 days by H and E staining based histological analysis; format: organism-based; conditions: in vivo, 720 h, time 30 day
Tubulin (Homo sapiens) [37] = target: T1, Tubulin (Homo sapiens); assay: Induction of microtubule disruption in human A549 cells assessed as abnormal uncondensed cytoplasm at 5 to 20 uM incubated for 12 hrs by immunofluorescence based laser scanning confocal microscopic analysis; format: cell-based; conditions: dose 5-20 µM

With `C=C(c1cc(OC)c(OC)c(OC)c1)c1ccc(OC)c(O)c1NC(=O)CO` the “Ratio IC50” value [1] was 1.75, the IC50 (HeLa [2]) was 20 nM and the IC50 (HCT-8 [3]) was 40 nM. For the same compound, the IC50 (MCF7 [4]) was 50 nM, the Activity (HeLa [5]) was “Dde” and the Activity (HCT-8 [6]) was “Dde”. The Activity (MCF7 [7]) was “Dde”, the Activity (LoVo) was “Dde” and the Activity (PC-3) was “Dde”. The Activity (MGC-803) was “Dde”, the IC50 [8] was 40 nM and the IC50 [9] was 1450 nM. It also gave an IC50 [10] of 1320 nM, a selectivity ratio [11] of 54 and an IC50 (A549 [12]) of 20 nM. For the same compound, the “Ratio IC50” value [13] was 2, the inhibition (Tubulin (Homo sapiens) [14]) was 16.7% and the inhibition (Tubulin (Homo sapiens) [15]) was 48.4%. For the same compound, the inhibition (Tubulin (Homo sapiens) [16]) was 78.5%, the inhibition (Tubulin (Homo sapiens) [17]) was 85% and the Activity (A549 [18]) was “Dde”. The Activity (A549 [19]) was “Active”, the Activity (A549 [20]) was “Dde” and the Activity (A549 [21]) was “Active”. For the same compound, the Activity (A549 [22]) was “Active”, the Activity (A549 [23]) was “Active” and the Activity [24] was “Non-Toxic”. It also gave an LD50 at 336 h [25] of 327 mg/kg, a half-life [26] of 2.12 h and an AUCt [27] of 2432.04 h/ng/mL. For the same compound, the MRT [28] was 2.57 h, the half-life [29] was 0.62 h and the AUCt [30] was 350.19 h/ng/mL. The AUC [31] was 353.02 h/ng/mL, the MRT [32] was 0.68 h and the inhibition in vivo at 10 mg/kg (A549 [33]) was 78.6%. The Activity [34] was “Non-Toxic”, the Activity [35] was “Non-Toxic” and the Activity [36] was “Non-Toxic”. The Activity (Tubulin (Homo sapiens) [37]) was “Active”.
